# Experimental data: patent US6441053B1, “Inhibitors of glycogen synthase kinase-3 and methods for identifying and using the same” (The Trustees of the University of Pennsylvania, priority 1996, dated 2002)
# Where two headings read alike, the source gives them in different places.
# How the values were obtained:
# GSK-3β = GSK-3β (Oryctolagus cuniculus, UniProt G1T8E2); assay: In vitro GSK-3β activity assay (32P incorporation into substrate); format: biochemical, rabbit; conditions: for inhibition of phosphorylation of peptide substrate by GSK-3β: 20 mM of the salt in the assay mixture; for GSK-3β phosphorylation of I-2: 20 mM salt, GS-2 and τ protein phosphorylation not inhibited
# Sequence of GSK-3β (G1T8E2 1-432): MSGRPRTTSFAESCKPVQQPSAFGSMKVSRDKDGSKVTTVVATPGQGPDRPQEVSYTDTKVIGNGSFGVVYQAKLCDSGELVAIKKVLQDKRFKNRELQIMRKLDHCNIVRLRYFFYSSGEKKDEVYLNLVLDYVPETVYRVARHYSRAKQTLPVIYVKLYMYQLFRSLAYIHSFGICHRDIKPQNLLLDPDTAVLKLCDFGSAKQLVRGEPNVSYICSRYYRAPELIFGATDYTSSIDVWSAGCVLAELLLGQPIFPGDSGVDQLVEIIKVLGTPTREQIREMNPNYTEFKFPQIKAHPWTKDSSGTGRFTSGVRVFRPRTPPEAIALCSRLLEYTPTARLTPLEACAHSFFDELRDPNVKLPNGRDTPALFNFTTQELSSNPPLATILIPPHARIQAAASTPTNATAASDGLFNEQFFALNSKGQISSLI
# Protocol: GSK-3β was assayed as described in the following paragraph using 0.5-1.0 units of GSK-3β per assay. […] GSK-3 buffer comprises 20 mM Tris-HCl, 10 mM MgCl2, 5 mM dithiothreitol, and has a pH of 7.5 at 20° C.
# The assay mixture comprised 1×GSK-3 buffer, an amount of a kinase enzyme corresponding to 0.5-1.0 unit of activity, a substrate, and 200 μM [γ^32P]-ATP (approximately 500 μCi/μmol). The assay mixture was incubated for a selected period of time following which incorporation of ^32P into the substrate was determined by standard methods.
# When I-2 was used as the substrate for […] in the assay, I-2 was present at a concentration of 50 μg/ml. […] The activities of protein kinase A (PKA), mitogen-activating protein kinase (ERK-1/MAP kinase), and casein kinase II (CKII) were assayed under conditions similar to those used to assay […] activity, except that β-mercaptoethanol was included in the PKA assays.
# [1] = target: T1, inositol monophosphatase (IMPase) (Xenopus laevis, UniProt P29219); assay: IMPase activity in vivo in injected ventral-vegetal blastomeres; conditions: 10 nl of 5 mM L-690,330 microinjected into blastomeres
# T1 construct: The thirty embryos were then lysed in 300 μl of IMPB; endogenous in cells; host or cells: Xenopus embryos (32-cell stage lysate supernatant; 8- to 16-cell stage embryos injected in vivo)
# T1 sequence (P29219 whole entry): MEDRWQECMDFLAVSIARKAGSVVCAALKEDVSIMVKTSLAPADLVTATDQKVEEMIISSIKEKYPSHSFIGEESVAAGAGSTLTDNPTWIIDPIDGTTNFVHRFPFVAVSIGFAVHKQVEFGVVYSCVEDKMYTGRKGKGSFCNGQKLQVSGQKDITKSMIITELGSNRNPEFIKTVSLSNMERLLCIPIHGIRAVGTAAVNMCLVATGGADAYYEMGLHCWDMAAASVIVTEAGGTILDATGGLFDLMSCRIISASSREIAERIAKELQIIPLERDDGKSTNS
# Protocol: Following dilution, 10 nl of the diluted ^3H-inositol-1-phosphate solution was injected into a single ventral-vegetal blastomere of an embryo which was at the 8- to 16-cell stage. […] The lysate was prepared and applied to Dowex columns as described above.
# IMPase = IMPase (Homo sapiens, UniProt P29218); conditions: Atack et al., 1993; cited from earlier work
# Sequence of IMPase (P29218 whole entry): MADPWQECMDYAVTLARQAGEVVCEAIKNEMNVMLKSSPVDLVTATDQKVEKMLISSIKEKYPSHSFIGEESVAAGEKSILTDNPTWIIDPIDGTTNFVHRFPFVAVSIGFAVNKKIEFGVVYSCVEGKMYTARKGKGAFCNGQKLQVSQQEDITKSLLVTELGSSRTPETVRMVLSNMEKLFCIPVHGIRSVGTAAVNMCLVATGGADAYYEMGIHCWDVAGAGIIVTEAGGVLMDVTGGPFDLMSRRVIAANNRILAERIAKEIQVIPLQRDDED
# [2] = target: T1, inositol monophosphatase (IMPase); assay: IMPase activity in lysates prepared from Xenopus embryos; format: biochemical
# Protocol: Thirty Xenopus embryos at the 32-cell stage were washed with 1 ml of 50 mM Tris, pH 7.8, 250 mM KCl, 3 mM MgCl2 (IMPB). The thirty embryos were then lysed in 300 μl of IMPB. The lysate was centrifuged for 5 minutes at 20,000×g at 4° C. and the resulting lysate supernatant was recovered. […] Each lysate supernatant mixture was then incubated at room temperature for 5 minutes. One μl of ^3H-inositol-1-phosphate was added to each lysate supernatant mixture, and the incubation was continued for an additional 25 minutes. Each lysate supernatant mixture was then diluted with 1.0 ml of 0.1×MMR, boiled for 5 minutes, and applied to Dowex columns as described (Berridge et al., 1983, Biochem. J. 212:473-482). Inositol was not retained by the Dowex column, and inositol-1-phosphate was eluted by application of 3 ml of 0.1 M formic acid/1.5 M ammonium formate (Berridge et al., 1983, supra). Each assay was repeated two to four times, and similar results were obtained among all replicates.
# Xenopus laevis embryo = assay: Dorsalization and development of treated or microinjected Xenopus embryos; format: in vivo
# Protocol: Xenopus eggs were fertilized in vitro according to well established protocols (Peng, 1991, in Appendix A of Methods in Cell Biology, Kay et al., eds., Academic Press Inc, San Diego). Microinjection of embryos was performed using embryos at the 1-cell to 32-cell stage, and a volume of 5-10 nl was injected into each embryo.
# L-690,330 was dissolved in water to form a solution having a concentration of L-690,330 in the range of 0.1 to 10 mM, and 5 to 10 nl of the L-690,330 solution was injected into the ventral vegetal region of 4, 8, 16, and 32 cell embryos. All four cells of individual 4-cell embryos were injected in separate experiments.
# Xenopus embryos = assay: Second axis formation in Xenopus embryos injected with DN-GSK-3 mRNA with or without myo-inositol; format: in vivo, Xenopus laevis
# Protocol: mRNA specifying DN-GSK-3 was microinjected into the subequatorial region of a ventral-vegetal blastomere in an embryo at the 16-cell stage. A volume of either 5 nl or 10 nl was microinjected depending upon the concentration of mRNA in the solution being microinjected. The same procedure was used to microinject myo-inositol into an embryo. In most experiments, 10 embryos were harvested at stage 8 to assess the level of DN-GSK-3protein expressed from the injected mRNA, and the level of DN-GSK-3protein in other embryos was assessed at stage 30-35.
smiles,measurement,setting,value
[Cl-].[Cs+] [CsCl],inhibition of phosphorylation of peptide substrate by GSK-3β,GSK-3β,Little inhibition
Cn1cc(C2=C(c3cn(CCCSC(=N)N)c4ccccc34)C(=O)NC2=O)c2ccccc21 [Ro31-8220],IC50,"GSK-3β; read-out: concentration giving approximately 50% inhibition of GSK-3β activity, assays of Example 1, 0 to 10 μM tested",~0.04 µM
"CC(Oc1ccc(O)cc1)(P(=O)(O)O)P(=O)(O)O [L-690,330]",level of inhibition of IMPase activity in vivo compared with 10 nl of 0.3 M LiCl,[1],several times greater
same,potency as inhibitor of IMPase activity relative to lithium,IMPase,approximately thousand-fold
same,IC50,"[2]; read-out: concentration giving 50% inhibition of in vitro IMPase activity, lysates prepared from Xenopus embryos",~1 µM
same,IC50,"[2]; read-out: concentration of L-690,330 giving approximately 50% inhibition of IMPase activity, FIG. 1 Panel A legend",~1000 µM
same,dorsalization of Xenopus embryo,"Xenopus laevis embryo; 0.3 M LiCl for 6 minutes at 32-cell stage, or injection of 10 nl of 5 mM L-690,330",did not exhibit dorsalization
same,toxicity in microinjected embryos,"Xenopus laevis embryo; highest doses of L-690,330 used",mild nonspecific toxicity
same,effect on development of Xenopus embryos,Xenopus laevis embryo; microinjected embryos,no discernible effect
[Cl-].[K+] [KCl],inhibition of phosphorylation of peptide substrate by GSK-3β,GSK-3β,Little inhibition
same,GSK-3β phosphorylation of I-2,GSK-3β,partially inhibited
O[C@H]1[C@H](O)[C@@H](O)[C@H](O)[C@@H](O)[C@H]1O [myo-inositol],effect of coinjection on second axis induction by DN-GSK-3,Xenopus embryos; coinjected with DN-GSK-3 mRNA into ventral-vegetal cell of 16-cell embryos,clearly reduced the frequency and the extent of second axis induction
same,effect on synthesis of DN-GSK-3 protein,Xenopus embryos; in vivo,did not inhibit
Cl.N [NH4Cl],inhibition of phosphorylation of peptide substrate by GSK-3β,GSK-3β,Little inhibition
[Cl-].[Na+] [NaCl],inhibition of phosphorylation of peptide substrate by GSK-3β,GSK-3β,Little inhibition
same,GSK-3β phosphorylation of I-2,GSK-3β,partially inhibited
